Experimental data reported in US20210040485A1, “Elimination or Neutralization of Endogenous High Molecular Weight FGF-2 Increases Cardiac Resistance to Doxorubicin-Induced Damage” (University of Manitoba, priority 2018, published 2021).
Like-named read-outs stand apart in the source and are kept apart here.

Columns and labels:
[1] = tested on: Bnip3 protein in hearts of FGF2 mouse strains; conditions: in vivo
Method: Protein (western) immunoblotting. At the end of the in vivo study, hearts were collected, snap frozen in liquid nitrogen, and stored at −80° C. Hearts were powdered with liquid nitrogen using a mortar and pestle prior to being homogenized in 10 mM Tris-HCl pH 7.4, 100 mM NaCl, 300 mM sucrose, 2 mM MgCl2, 1% thiodiglycol, 60 mM B glycerophosphate, 10 mM NaF and an equal volume of 20% glycerol, 100 mM Tris/HCl PH=6.8, and 2% sodium dodecyl sulphate (SDS). All buffers were supplemented (1:100) with protease inhibitor cocktail (Sigma-Aldrich, #8304) and phosphatase inhibitor cocktail set II and IV (Calbiochem, #524625 and #524628). Samples were boiled, sonicated, and centrifuged 15 minutes at 21,000 g to remove cellular debris. Protein concentration was measured by bicinchoninic acid assay. Following SDS-polyacrylamide gel electrophoresis and protein transfer to polyvinylidene fluoride (PVDF) membranes, total protein was stained using 2% Ponceau S (Sigma-Aldrich, P3504) (w/v) in 30% trichloroacetic acid to assess overall protein transfer. Non-specific binding sites were blocked by incubation in 10% milk/TBS-T for 1 hour at room temperature. […]
Protein extraction and immunoblotting (western blot). […] Protein concentration was measured using the bicinchoninic acid assay from Sigma. […]

[2] = tested on: neonatal rat ventricular cardiomyocytes co-cultured with MEFs; assay: MEF-cardiomyocyte co-cultures exposed to Dox: Troponin T release into medium; type: cell-based; conditions: Dox 0.5 μM, 24 h
Method: In vitro experiments. Neonatal rat ventricular cardiomyocytes (referred to as ‘cardiomyocytes’) were isolated from 1-2 day old rat pups as previously described (10).
MEF-Cardiomyocyte co-cultures. Cardiomyocytes were plated at a density of 5×10^4 cells/cm^2 on collagen (Corning, #354236) coated glass coverslips in the presence of 20% fetal bovine serum (FBS) in Hams F-10 culture medium; 24 hours later the media was changed and MEFS from FGF2(WT), FGF2(−), FGF2(Hi), and FGF2(Lo) strains (2×10^4/cm^2) were added to the cultures in low-serum medium (0.5% FBS, 1% insulin, 1% transferrin/selenium, and 1% ascorbic acid) in Dulbecco's modified Eagle's medium (DMEM). […] Conditioned media were collected 24 h later, and stored at −80° C. Cells attached on coverslips were used for the Calcein-AM/Cobalt chloride mPTP assay.
Primary mouse embryonic fibroblasts (MEFs)-r-cardiomyocyte co-cultures. MEFs were isolated as described (30). R-cardiomyocytes were plated at a density of 5×10^4 cells/cm^2 on collagen (Corning, #354236) coated glass coverslips in the presence of 20% fetal bovine serum (FBS) in Hams F-10 culture medium; 24 hours later the media was changed and MEFS from FGF2(WT) and FGF2(Lo) strains (2×10^4/cm^2) were added to the cultures in low-serum medium (0.5% FBS, 1% insulin, 1% transferrin/selenium, and 1% ascorbic acid) in Dulbecco's modified Eagle's medium (DMEM). […]

[3] = tested on: cancer patients; conditions: cited from earlier work
[4] = tested on: FGF2(WT), FGF2(−), FGF2(Hi), FGF2(Lo) mice; assay: In vivo model for acute Doxorubicin effects: mortality and body weight; design: species or system mouse; conditions: for effect on body weight: all groups, 10 days post-injection; for Dox-induced mortality: by day 10 post-Dox
Text: In vivo model for acute cardiotoxic effects. […] Hearts were then collected for biochemical analyses.

[5] = tested on: r-cardiomyocytes co-cultured with human FibiPSC; assay: FibiPSC-cardiomyocyte co-cultures exposed to Dox: cTnT release; type: cell-based, rat; conditions: control (IgG) co-cultures with h-FibiPSC; Dox 0.5 μM, 24 h
Method: Fib^iPSC-Cardiomyocyte co-cultures. Cardiomyocytes were plated at a density of 5×10^4 cells/cm^2 on collagen coated plates in the presence of 20% (FBS) in Hams F-10 culture medium. After 24 hours, the media was changed to low serum medium (0.5% FBS, 1% insulin, 1% transferrin/selenium, 1% ascorbic acid, and 1% bovine serum albumin) in Dulbecco's modified Eagle's medium (DMEM). FibiPSC were added to the cultures at a density of 3×10^4/cm^2. Human Hi-FGF2 antibody (Hi-Ab, 20 μg/ml) or non-immune rabbit IgG was added to the culture after 6 hours. The Hi-Ab and rabbit IgG were supplemented in the co-cultures every 24 hours. […] Subsequently, the media was collected and stored at −80° C.
Protein extraction and immunoblotting (western blot).
Hi-FGF2 antibody. Anti-Hi-FGF2 antibody (Hi-Ab) against 12 amino acids from the N-terminal section of the Hi-FGF2 “[…]” (SEQ ID NO:1) was made in rabbit and affinity purified by Genscript. Characterization was done as we described previously, for a similar preparation anti-Hi-FGF2 (9). Affinity purified Hi-Ab was used at a concentration of 20 μg/ml in in vitro models.

[6] = clinic; cited from earlier work

| Substance | upregulation of cardiac Bnip3 protein versus saline-treated group [1] [fold] | Dox-induced cTnT release ([2]; co-cultures with FGF2(WT) MEFs) | Dox-induced Tn-T release ([2]; co-cultures with FGF2(WT), FGF2(−) and FGF2(Hi) MEFs) | incidence of cardiotoxicity ([3]; cumulative dose 400 mg/m^2) | incidence of cardiotoxicity ([3]; cumulative dose 700 mg/m^2) | effect on body weight [4] | effect on body weight ([4]; listed as Doxorubicin) | deaths associated with Dox administration ([4]; female FGF2(WT) and FGF2(Lo) groups) | Dox-induced mortality ([4]; female FGF2(−) mice) [%] | post-Dox mortality ([4]; male FGF2(Hi) mice) [%] | post-Dox mortality ([4]; male FGF2(WT) mice) [%] | Dox-induced mortality ([4]; male FGF2(−) mice) [%] | deaths associated with Dox administration ([4]; males, in either the FGF2(WT) or the FGF2(Lo) group) | deaths post-Dox ([4]; remaining female groups (other than FGF2(−))) | cardiomyocyte damage measured by cTnT release [5] | half life [6] [days] |
| --- | --- | --- | --- | --- | --- | --- | --- | --- | --- | --- | --- | --- | --- | --- | --- | --- |
| Doxorubicin | 1.5 | observed | observed | 3-5% | 18-48% | some weight loss | significantly decreased body weight | No death | 30 | 20 | 10 | 70 | one death in ten animals | No deaths | robust cardiomyocyte damage | – |
| infliximab | – | – | – | – | – | – | – | – | – | – | – | – | – | – | – | 9.5 |
| pertuzumab | – | – | – | – | – | – | – | – | – | – | – | – | – | – | – | 18 |
